Laboratory results as given in article PMC9977398, “Next-generation membrane-active glycopeptide antibiotics that also inhibit bacterial cell division” (Chemical Science, 2023).
Converted amounts (≈) assume the structure as drawn. Read-outs that look alike come from different tables or passages of the source.

Key:
biofilms of MRSA = test: Disruption of mature biofilms, confocal microscopy; format: cell-based, S. aureus; conditions: 20 μM; for thickness of biofilm after treatment: 24 h, untreated 11.8 μm
From the text: Another growing challenge in treating bacterial infections is the formation of biofilms, which are recalcitrant to antibiotic treatment.[29] Most antibiotics including vancomycin are rendered ineffective against biofilms consisting of both dividing and non-dividing cells, majorly due to their inability to penetrate through the extracellular polymeric matrix. Thus, it is important to develop compounds that eradicate biofilms as well as planktonic cells. Untreated biofilms of MRSA grew to a thickness of 11.8 μm (Fig. S3A ^†). The vancomycin-treated biofilms remained intact with thickness similar to the untreated control. […]
were added to it the wells containing bacterial suspension. Fluorescence has monitored at excitation wavelength of 535 nm (slit width: 10 nm) and emission wavelength of 617 nm (slit width: 5 nm). As a measure of inner membrane permeabilization the uptake of PI was monitor by the increase in fluorescence for 30-50 min. For assessing depolarisation against stationary phase cells of MRSA ATCC 33591, cells were grown to the stationary phase for 16 h. The culture was then diluted to an OD600 of 0.2 and the depolarisation assays was performed as described. The experiments were performed three times independently in duplicates and the graph is representative of the results from all experiments.
(§1) Cytoplasmic membrane depolarization assay5
Mid log phase MRSA were harvested (3500 rpm, 5 min), washed in 5 mM glucose and 5 mM HEPES buffer (pH 7.2) in 1:1 ratio and resuspended in 5 mM HEPES buffer, 5 mM glucose and 100 mM KCl solution in 1:1:1 ratio. Then 2 μM of 3, 3′-Dipropylthiadicarbocyanine iodide (DiSC3(5)) was added to bacterial suspension and pre-incubated for 45 min. The fluorescence was monitored at excitation wavelength of 622 nm and emission wavelength of 670 nm. Then 20 μL of test compound and vancomycin were added to black well plates containing bacterial suspension and DiSC3(5) after 2-4 min of fluorescence measurement. As a measure of membrane depolarization fluorescence was monitor for another 35 min. […]

B. subtilis 168 = test: Determination of MIC against B. subtilis; format: cell-based; conditions: read-out: MIC against B. subtilis
Description: Determination of MIC against B. subtilis
Overnight cultures of B. subtilis 168 were grown in 50 mL flasks in 5 mL BMM media. The bacteria in the mid-log phase were then incubated with compounds for 18 h at 37 ̊C in BMM media. The MIC was determined as the lowest concentration at which no visible bacterial OD […]
Overnight bacterial cultures were inoculated in BMM and allowed to grow to an OD 500 of 0.35. 200 µL of the bacterial culture were incubated with compounds at 37 ̊C for 15 minutes. […]
BAC Light assay or pore formation assay
0.35. 500 µL of the bacteria was then incubated with the compounds at their respective PECSs for 10 mins in the same media at 37 ̊C. The compound was then centrifuged at 13200 rpm and […]

MRSA = test: Cytoplasmic membrane depolarization assay, DiSC3(5); format: cell-based, S. aureus; conditions: for time to membrane depolarisation post-treatment: exponentially growing MRSA, 10 μM; for time to dissipation of membrane potential post-treatment: stationary phase cells of MRSA, 20 μM
From the text: The membrane disruption properties of both VanQbiph (4) and VanQAmC10 (8) were studied to correlate the extent of membrane perturbation and bactericidal activity against both exponentially growing and non-growing bacterial cells. Their ability to depolarize the membrane was monitored using the fluorescent probe DiSC3(5) (3,3′-dipropylthiadicarbocyanine iodide). DiSC3(5) is sensitive to the membrane potential and as it accumulates in the membrane, the fluorescence intensity decreases due to self-quenching. Upon dissipation of membrane potential, an increase in fluorescence is observed due to DiSC3(5) being dispersed in the solution. Against B. subtilis and MRSA, both the compounds VanQbiph (4) and VanQAmC10 (8) depolarised the membrane within 2 minutes post-treatment at 10 μM (Fig. 2A and B). The depolarization occurred in a concentration-dependent manner (Fig. S2A ^†). […] Against stationary phase cells of MRSA also, rapid dissipation of membrane potential was observed within 2 minutes post-treatment with both VanQbiph (4) and VanQAmC10 (8) (Fig. 2C). […]
For assessing depolarisation against stationary phase cells of MRSA ATCC 33591, cells were grown to the stationary phase for 16 h. The culture was then diluted to an OD600 of 0.2 and the depolarisation assays was performed as described. The experiments were performed three times independently in duplicates and the graph is representative of the results from all experiments.
as §1
Mid log phase MRSA were harvested (3500 rpm, 5 min), washed in 5 mM glucose and 5 mM HEPES buffer (pH 7.2) in 1:1 ratio and resuspended in 5 mM HEPES buffer, 5 mM glucose and 100 mM KCl solution in 1:1:1 ratio. Then 2 μM of 3, 3′-Dipropylthiadicarbocyanine iodide (DiSC3(5)) was added to bacterial suspension and pre-incubated for 45 min. The fluorescence was monitored at excitation wavelength of 622 nm and emission wavelength of 670 nm. Then 20 μL of test compound and vancomycin were added to black well plates containing bacterial suspension and DiSC3(5) after 2-4 min of fluorescence measurement. As a measure of membrane depolarization fluorescence was monitor for another 35 min. For assessing membrane […] against stationary phase cells of MRSA ATCC 33591, cells were grown to the stationary phase for 16 h. The culture was then diluted to an OD600 of 0.2 and the depolarisation assays was performed as described. The images are representative of results from three independent experiments done in triplicates […]
Glass cover slips 24 h post -treatment with the test compounds at the mentioned con centrations, […]

SMILES	thickness of biofilm after treatment (biofilms of MRSA) [μm]	reduction of thickness of biofilms (biofilms of MRSA; mature MRSA biofilm)	MIC (B. subtilis 168; Bacillus subtilis, 168, 18 h) [µM]	time to membrane depolarisation post-treatment (MRSA) [min]	time to dissipation of membrane potential post-treatment (MRSA) [min]	MIC (B. subtilis 168; Bacillus subtilis, 168, BMM media, 18 h) [µM]	effect on membrane potential (MRSA)
CCCCCCCCCCNC(=O)C[N+](C)(C)CCCNC(=O)C1NC(=O)C2NC(=O)C(NC(=O)C3NC(=O)C(CC(N)=O)NC(=O)C(NC(=O)C(CC(C)C)NC)C(O)c4ccc(c(Cl)c4)Oc4cc3cc(c4OC3OC(CO)C(O)C(O)C3OC3CC(C)(N)C(O)C(C)O3)Oc3ccc(cc3Cl)C2O)c2ccc(O)c(c2)-c2c(O)cc(O)cc21 (centres unmarked) [VanQAmC10 (8)]	7.4	about 40%	0.25	≤ 2	≤ 2	–	–
CNC(CC(C)C)C(=O)NC1C(=O)NC(CC(N)=O)C(=O)NC2C(=O)NC3C(=O)NC(C(=O)NC(C(=O)NCCC[N+](C)(C)Cc4ccc(-c5ccccc5)cc4)c4cc(O)cc(O)c4-c4cc3ccc4O)C(O)c3ccc(c(Cl)c3)Oc3cc2cc(c3OC2OC(CO)C(O)C(O)C2OC2CC(C)(N)C(O)C(C)O2)Oc2ccc(cc2Cl)C1O (centres unmarked) [VanQbiph (4)]	–	–	–	≤ 2	≤ 2	0.15	–
CN[C@H](CC(C)C)C(=O)N[C@H]1C(=O)N[C@@H](CC(N)=O)C(=O)N[C@H]2C(=O)N[C@H]3C(=O)N[C@H](C(=O)N[C@H](C(=O)O)c4cc(O)cc(O)c4-c4cc3ccc4O)[C@H](O)c3ccc(c(Cl)c3)Oc3cc2cc(c3O[C@@H]2O[C@H](CO)[C@@H](O)[C@H](O)[C@H]2O[C@H]2C[C@](C)(N)[C@H](O)[C@H](C)O2)Oc2ccc(cc2Cl)[C@H]1O [Vancomycin, reference compound]	10.1	–	0.2 (≈ 0.29 µg/mL)	–	–	–	did not affect the membrane potential
